Measurements reported in patent US7320972B2, “4-Biarylyl-1-phenylazetidin-2-ones” (Microbia, Inc., priority 2003, dated 2008).

How the values were obtained:
[1] = tested on: cholesterol absorption (serum 3H-cholesterol); assay: In Vivo Assay of Hypolipidemic Agents using the Rat Cholesterol Absorption Model; parameters: species or system Sprague-Dawley rats; conditions: po, peroral, 1 mg/kg, serum 3H-cholesterol 3 h after cholesterol dose, vs vehicle control
In short: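 Female Sprague-Dawley rats (150–250 g, 4–6 per group) were fasted overnight and dosed orally with compound in olive oil or vehicle. Thirty minutes later they received 3–5 μCi 3H-cholesterol orally in olive oil, and serum radioactivity was measured at 3 h. % inhibition = 100×(1−Ctest/Cctrl) at a fixed dose; ED50 is the dose giving half-maximal effect.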

melting point [°C] | SMILES | inhibition in vivo at 1 mg/kg [1] [%]
107 | O=C1[C@H](CC[C@H](O)c2ccc(F)cc2)[C@@H](c2ccc(-c3cccc(O)c3)cc2)N1c1ccc(F)cc1 [Example 4, (3R,4S)-1-(4-Fluorophenyl)-3-[(3S)-3-(4-fluorophenyl)-3-hydroxypropyl]-4-(3′-hydroxybiphenyl-4-yl)azetidin-2-one] | 72
103 | COc1cc(-c2ccc([C@@H]3[C@@H](CC[C@H](O)c4ccc(F)cc4)C(=O)N3c3ccc(F)cc3)cc2)cc(OC)c1OC [Example 9, (3R,4S)-1-(4-fluorophenyl)-3-[(3S)-3-(4-fluorophenyl)-3-hydroxypropyl]-4-(3′,4′,5′-trimethoxybiphenyl-4-yl)azetidin-2-one] | 40
113 | O=C1[C@H](CC[C@H](O)c2ccc(F)cc2)[C@@H](c2ccc(O)c(-c3ccccc3)c2)N1c1ccc(F)cc1 [Example 6, (3R,4S)-1-(4-fluorophenyl)-3-[(3S)-3-(4-fluorophenyl)-3-hydroxypropyl]-4-(6-hydroxybiphenyl-3-yl)azetidin-2-one] | –
– | COc1cc(F)cc(-c2ccc([C@@H]3[C@@H](CC[C@H](O)c4ccc(F)cc4)C(=O)N3c3ccc(F)cc3)cc2)c1 [Example 111, (3R,4S)-4-(3′-fluoro-5′-methoxybiphenyl-4-yl)-1-(4-fluorophenyl)-3-[(3S)-3-(4-fluorophenyl)-3-hydroxypropyl]azetidin-2-one] | 72
– | O=C1[C@H](CC[C@H](O)c2ccc(F)cc2)[C@@H](c2ccc(-c3ccc(O)cc3)cc2O)N1c1ccccc1 [Example 125, (3R,4S)-4-(3,4′-dihydroxybiphenyl-4-yl)-3-[(3S)-3-(4-fluorophenyl)-3-hydroxypropyl]-1-phenylazetidin-2-one] | 64
– | O=Cc1ccc(-c2ccc([C@@H]3[C@@H](CC[C@H](O)c4ccc(F)cc4)C(=O)N3c3ccc(F)cc3)cc2)cc1 [Example 99, 4′-{(2S,3R)-1-(4-fluorophenyl)-3-[(3S)-3-(4-fluorophenyl)-3-hydroxypropyl]-4-oxoazetidin-2-yl}biphenyl-4-carbaldehyde] | 38
– | O=C1[C@H](CC[C@H](O)c2ccc(F)cc2)[C@@H](c2ccc(-c3cccc(OC[C@@H](O)[C@@H](O)[C@H](O)[C@@H](O)CO)c3)cc2)N1c1ccc(F)cc1 [Example 78, 6-O-(4′-{(2S,3R)-1-(4-Fluorophenyl)-3-[(3S)-3-(4-fluorophenyl)-3-hydroxypropyl]-4-oxoazetidin-2-yl}biphenyl-3-yl)-D-glucitol] | 51
– | O=C1[C@H](CC[C@H](O)c2ccc(F)cc2)[C@@H](c2ccc(-c3ccc([C@H]4O[C@@H](CO)[C@H](O)[C@@H](O)[C@@H]4O)cc3)cc2)N1c1ccc(F)cc1 [Example 116, (1R)-1,5-anhydro-1-(4′-{(2S,3R)-1-(4-fluorophenyl)-3-[(3S)-3-(4-fluorophenyl)-3-hydroxypropyl]-4-oxoazetidin-2-yl}biphenyl-4-yl)-L-glucitol] | 81
– | CN(C)c1cccc(-c2ccc([C@@H]3[C@@H](CC[C@H](O)c4ccc(F)cc4)C(=O)N3c3ccc(F)cc3)cc2)c1 [Example 83, (3R,4S)-4-[3′-(dimethylamino)biphenyl-4-yl]-1-(4-fluorophenyl)-3-[(3S)-3-(4-fluorophenyl)-3-hydroxypropyl]azetidin-2-one] | 38
– | O=C(O)c1cccc(-c2ccc([C@@H]3[C@@H](CC[C@H](O)c4ccc(F)cc4)C(=O)N3c3ccc(F)cc3)cc2)c1 [Example 21, 4′-{(2S,3R)-1-(4-fluorophenyl)-3-[(3S)-3-(4-fluorophenyl)-3-hydroxypropyl]-4-oxoazetidin-2-yl]biphenyl-3-carboxylic acid] | 68
– | Cc1cc(C)cc(-c2ccc([C@@H]3[C@@H](CC[C@H](O)c4ccc(F)cc4)C(=O)N3c3ccc(F)cc3)cc2)c1 [Example 90, (3R,4S)-4-(3′,5′-dimethylbiphenyl-4-yl)-1-(4-fluorophenyl)-3-[(3S)-3-(4-fluorophenyl)-3-hydroxypropyl]azetidin-2-one] | 27
